Experimental findings from patent publication US7750003B2, “Compounds-943” (AstraZeneca AB, priority 2006, dated 2010) are described below.

Each structure is given as a SMILES string.

recombinant mTOR (FLAG-tagged, residues 1362-2549), sequence (P42345 1362-2549): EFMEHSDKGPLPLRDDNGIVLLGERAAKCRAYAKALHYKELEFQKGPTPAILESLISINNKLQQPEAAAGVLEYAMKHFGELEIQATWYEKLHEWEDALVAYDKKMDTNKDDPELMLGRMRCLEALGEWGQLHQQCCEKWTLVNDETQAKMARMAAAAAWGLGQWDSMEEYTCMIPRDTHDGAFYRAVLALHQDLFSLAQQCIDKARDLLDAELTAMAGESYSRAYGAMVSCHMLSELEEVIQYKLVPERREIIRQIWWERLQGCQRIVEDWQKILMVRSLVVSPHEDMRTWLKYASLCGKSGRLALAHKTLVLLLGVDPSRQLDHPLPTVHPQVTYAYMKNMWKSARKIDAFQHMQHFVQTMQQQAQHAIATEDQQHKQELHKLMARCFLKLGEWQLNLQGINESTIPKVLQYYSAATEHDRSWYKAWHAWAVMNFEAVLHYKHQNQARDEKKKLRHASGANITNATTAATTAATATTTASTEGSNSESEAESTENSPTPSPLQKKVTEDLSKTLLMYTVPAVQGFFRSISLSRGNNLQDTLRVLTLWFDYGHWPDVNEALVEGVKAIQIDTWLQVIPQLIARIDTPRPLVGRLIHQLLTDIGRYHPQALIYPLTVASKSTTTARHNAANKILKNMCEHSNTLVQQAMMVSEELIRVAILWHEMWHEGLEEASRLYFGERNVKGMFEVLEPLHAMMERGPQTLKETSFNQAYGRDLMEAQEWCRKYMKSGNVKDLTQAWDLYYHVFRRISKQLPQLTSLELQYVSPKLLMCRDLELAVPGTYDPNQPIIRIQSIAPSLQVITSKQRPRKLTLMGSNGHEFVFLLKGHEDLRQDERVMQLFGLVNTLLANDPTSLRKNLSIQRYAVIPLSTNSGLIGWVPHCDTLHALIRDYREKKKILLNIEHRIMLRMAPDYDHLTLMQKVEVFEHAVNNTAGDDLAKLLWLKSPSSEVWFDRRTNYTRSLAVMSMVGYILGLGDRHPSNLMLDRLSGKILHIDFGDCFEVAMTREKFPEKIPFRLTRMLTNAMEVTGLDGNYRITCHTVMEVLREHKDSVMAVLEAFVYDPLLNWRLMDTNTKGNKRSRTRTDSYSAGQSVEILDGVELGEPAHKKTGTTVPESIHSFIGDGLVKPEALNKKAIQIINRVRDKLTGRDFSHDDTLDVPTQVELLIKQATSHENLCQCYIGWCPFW

The target of this assay is recombinant mTOR (FLAG-tagged, residues 1362-2549) (Homo sapiens, UniProt P42345). Description: In vitro mTOR kinase assay (Test (a), AlphaScreen). Type of assay: biochemical. The following applies: ATP 20 μM, read-out: Test (a): IC50 versus mTOR kinase. As to the method:
(a) In Vitro mTOR Kinase Assay
Following expression in the mammalian HEK293 cell line, expressed protein was purified using the FLAG epitope tag using standard purification techniques.
Aliquots (2 μl) of each compound dilution were placed into a well of a Greiner 384-well low volume (LV) white polystyrene plate (Greiner Bio-one).
These assay solutions were incubated for 2 hours at room temperature.
The resultant signals arising from laser light excitation at 680 nm were read using a Packard Envision instrument.
The phosphorylated biotinylated peptide that is associated with AlphaScreen Streptavidin donor beads forms a complex with the p70 S6 Kinase (T389) 1A5 Monoclonal Antibody that is associated with Alphascreen Protein A acceptor beads. Upon laser light excitation at 680 nm, the donor bead: acceptor bead complex produces a signal that can be measured. Accordingly, the presence of mTOR kinase activity results in an assay signal. In the presence of an mTOR kinase inhibitor, signal strength is reduced.
mTOR enzyme inhibition for a given test compound was expressed as an IC50 value.
In general terms: Alpha assays give light when donor and acceptor beads are brought close together.
A word on the IC50: it is the concentration that gives 50% inhibition. As to `CCNC(=O)Nc1ccc(-c2nc(CS(C)(=O)=O)cc(N3CCOC[C@@H]3C)n2)cc1Cl` [Example 8i, 1-[2-Chloro-4-[4-[(3S)-3-methylmorpholin-4-yl]-6-(methylsulfonylmethyl)pyrimidin-2-yl]phenyl]-3-ethyl-urea], the IC50 was 1400 nM. `CNC(=O)Nc1ccc(-c2nc(CS(C)(=O)=O)cc(N3CCOC[C@@H]3C)n2)cc1C` [Example 8j, 3-Methyl-1-[2-methyl-4-[4-[(3S)-3-methylmorpholin-4-yl]-6-(methylsulfonylmethyl)pyrimidin-2-yl]phenyl]urea]: the IC50 was 160 nM.

On to `CC(C)S(=O)(=O)Cc1cc(N2CCOC[C@@H]2C)nc(-c2ccc(NC(=O)Nc3ccccc3)cc2)n1` [Example 9, 1-[4-[4-[(3S)-3-Methylmorpholin-4-yl]-6-(propan-2-ylsulfonylmethyl)pyrimidin-2-yl]phenyl]-3-phenyl-urea], for which the half-inhibitory concentration (IC50) stood at 590 nM. With `C[C@H]1COCCN1c1cc(CO)nc(-c2ccc(NC(=O)N(C)C)cc2)n1` [Example 10, 3-[4-[4-(Hydroxymethyl)-6-[(3S)-3-methylmorpholin-4-yl]pyrimidin-2-yl]phenyl]-1,1-dimethyl-urea], the IC50 was 19000 nM.

On to `CC(=O)NCCS(=O)(=O)Cc1cc(N2CCOC[C@@H]2C)nc(-c2ccc(NC(=O)Nc3ccccc3)cc2)n1` [Example 11, N-[2-[[6-[(3S)-3-methylmorpholin-4-yl]-2-[4-(phenylcarbamoylamino)phenyl]pyrimidin-4-yl]methylsulfonyl]ethyl]acetamide], for which the IC50 was found to be 140 nM. As for `C[C@H]1COCCN1c1cc(CS(=O)(=O)c2ccccc2)nc(-c2ccc(NC(=O)Nc3ccccc3)cc2)n1` [Example 12, 1-[4-[4-(Benzenesulfonylmethyl)-6-[(3S)-3-methylmorpholin-4-yl]pyrimidin-2-yl]phenyl]-3-phenyl-urea], the figure is 230 nM; as for `C[C@H]1COCCN1c1cc(CS(=O)(=O)CC#N)nc(-c2ccc(NC(=O)N(C)C)cc2)n1` [Example 13, 3-[4-[4-(Cyanomethylsulfonylmethyl)-6-[(3S)-3-methylmorpholin-4-yl]pyrimidin-2-yl]phenyl]-1,1-dimethyl-urea], 2100 nM; as for `CC(C)S(=O)(=O)Cc1cc(N2CCOC[C@@H]2C)nc(-c2ccc(NC(=O)N(C)C)cc2)n1` [Example 14, 1,1-Dimethyl-3-[4-[4-[(3S)-3-methylmorpholin-4-yl]-6-(propan-2-ylsulfonylmethyl)pyrimidin-2-yl]phenyl]urea], 420 nM. With `C[C@H]1COCCN1c1cc(CS(=O)(=O)c2ccccc2)nc(-c2ccc(NC(=O)N(C)C)cc2)n1` [Example 15, 3-[4-[4-(Benzenesulfonylmethyl)-6-[(3S)-3-methylmorpholin-4-yl]pyrimidin-2-yl]phenyl]-1,1-dimethyl-urea], the 50% inhibitory concentration (IC50) came out at 1000 nM.

In the case of `CC(=O)NCCS(=O)(=O)Cc1cc(N2CCOC[C@@H]2C)nc(-c2ccc(NC(=O)N(C)C)cc2)n1` [Example 16, N-[2-[[2-[4-(Dimethylcarbamoylamino)phenyl]-6-[(3S)-3-methylmorpholin-4-yl]pyrimidin-4-yl]methylsulfonyl]ethyl]acetamide], the 50% inhibitory concentration (IC50) amounted to 4000 nM. In the case of `C[C@H]1COCCN1c1cc(CS(=O)(=O)CC(N)=O)nc(-c2ccc(NC(=O)N(C)C)cc2)n1` [Example 17, 2-[[2-[4-(Dimethylcarbamoylamino)phenyl]-6-[(3S)-3-methylmorpholin-4-yl]pyrimidin-4-yl]methylsulfonyl]acetamide], the IC50 came to 1100 nM. Regarding `CNC(=O)Nc1ccc(-c2nc(CO)cc(N3CCOC[C@@H]3C)n2)cc1` [Example 18, 1-[4-[4-(Hydroxymethyl)-6-[(3S)-3-methylmorpholin-4-yl]pyrimidin-2-yl]phenyl]-3-methyl-urea], the IC50 is 120 nM.

In the case of `CNC(=O)Nc1ccc(-c2nc(CS(=O)(=O)C3CCCCC3)cc(N3CCOC[C@@H]3C)n2)cc1` [Example 19, 1-[4-[4-(Cyclohexylsulfonylmethyl)-6-[(3S)-3-methylmorpholin-4-yl]pyrimidin-2-yl]phenyl]-3-methyl-urea], the IC50 worked out at 250 nM.
